Laboratory results reported in patent US20230371814A1, “WIRELESS THERANOSTIC SMART CONTACT LENS CAPABLE OF MEASURING AND ADJUSTING INTRAOCULAR PRESSURE IN GLAUCOMA PATIENTS” (POSTECH RESEARCH AND BUSINESS DEVELOPMENT FOUNDATION, priority 2022, published 2023).

Test: In vitro release of timolol from the drug reservoir of the flexible DDS
Format: physicochemical
Experimental: An electrochemical reaction of gold was examined in vitro in PBS (pH 7.4) and artificial tears having a constant voltage of 1.85 V. Timolol was released from the drug reservoir by applying a voltage of 1.85 V to an anode and a cathode of a DDS for 5 minutes. A concentration of the released timolol was quantified with a UV-vis spectrometer at an absorbance wavelength of 259 nm.

## CC(C)(C)NC[C@H](O)COc1nsnc1N1CCOCC1 [timolol]
Absence of the PVA layer
  drug (timolol) released: less than 50%
For 90 minutes, without electrical triggering
  timolol released without electrical triggering: less than 5%
Presence of PVA
  drug (timolol) dissolution: completely dissolved
  time until almost all of the timolol was completely released: ≤ 30 min
Presence of PVA, within 5 minutes
  timolol released within 5 minutes: less than 85%
Three reservoirs activated at 10, 25 and 40 minutes
  cumulative release of timolol at each activation: significantly enhanced
Three reservoirs, until 10 minutes (before first activation)
  cumulative release of timolol before activation: no significant release
